Paper PMC11277004, “Di- and Triselenoesters—Promising Drug Candidates for the Future Therapy of Triple-Negative Breast Cancer” (International Journal of Molecular Sciences, 2024)

Legend:
[1] = system: human breast cancer cells MCF-7 and MDA-MB-231; set-up: method as in PMID 36077839; details: 3 µM; cited from earlier work
[2] = system: MCF-7 breast cancer cells; assay: MTT cytotoxicity test, MCF-7; type: cell-based, human; details: Homo sapiens, MCF7; MCF-7, 24 h incubation; read-out: IC50, cell viability (MTT)
Method: (§1) MCF-7 and MDA-MB-231 human breast cancer cell lines, as well as MCF-10A normal human breast epithelial cells, were acquired from the American Type Culture Collection (ATCC, Manassas, VA, USA). The characteristics of the breast cancer cell lines used in this study are compared in Table 1. MCF-7 and MDA-MB-231 cells were cultured in Dulbecco’s modified Eagle’s medium (Gibco, San Diego, CA, USA), while MCF-10A cells were cultured in the mammary epithelial cell growth medium with the following supplements: BPE, hEGF, insulin, hydrocortisone, GA-1000 (Lonza, Basel, Switzerland). All media were complemented by 10% of fetal bovine serum (FBS) and 1% of the following antibiotics: penicillin and streptomycin (both Gibco, San Diego, CA, USA). The cells were maintained in an incubator that provides the optimal growth conditions for the cell culture: 5% CO2, 37 °C, and humidity in a range of 90–95%. The cells were cultured in 100 mm plates (Sarstedt, Newton, NC, USA). Subsequently, after obtaining a subconfluent cell culture, the cells were detached with 0.05% trypsin with 0.02% EDTA (Gibco, San Diego, CA, USA). […] In this study, cells that obtained 80% confluence were used. The MTT assay was used to determine the cytotoxic effects of the compounds in the study on MCF-7 and MDA-MB-231 breast cancer cells as well as MCF-10A normal human breast epithelial cells based on Carmichael’s method. […] After this time, the medium was removed, and the cell monolayer was washed with warm phosphate-buffered saline (PBS) without calcium and magnesium. In the next step, PBS and MTT solution in PBS (5 mg/mL) were added to each well to obtain a final MTT concentration of 0.5 mg/mL, and then the cells were incubated for 4 h (37 °C temperature, 5% CO2, 90–95% humidity). After the incubation period, the contents of each well were removed, 1 mL of DMSO was added to dissolve the formazan, and then the plate with the added DMSO was mixed for 5–10 min on a microplate shaker (Boeco, Hamburg, Germany). Then, 10 µL of Sorensen’s glycine buffer (a solution of 0.1 M glycine and 0.1 M sodium chloride adjusted to pH 10.5 with 0.1 M sodium hydroxide) was added. The absorbance of the obtained solution was immediately measured at a wavelength of λ = 570 nm using a Thermo Scientific Evolution 201 UV–VIS spectrophotometer (Thermo Fisher Scientific, Waltham, MA, USA). The absorbance result obtained in the control cells (without the addition of the tested compounds) was taken as 100%, while the viability of cells incubated with the tested compounds was presented as a percentage of the control value.

[3] = system: MDA-MB-231 triple-negative breast cancer cells; assay: MTT cytotoxicity test, MDA-MB-231; type: cell-based, human
Method: as §1

[4] = system: MCF-10A normal human breast epithelial cells; assay: MTT cytotoxicity test, MCF-10A; type: cell-based; details: Homo sapiens, 24 h incubation, read-out: IC50, cell viability (MTT)
Method: as §1

[5] = system: MCF-7 breast cancer cells; assay: DNA biosynthesis assay ([3H]-thymidine incorporation), MCF-7; type: cell-based, human; details: Homo sapiens, MCF7, 24 h, read-out: IC50, DNA biosynthesis
Method: (§2) The study of the antiproliferative properties (intensity of [^3H]-thymidine incorporation into cell DNA) of the tested derivatives against tested cell lines (MCF-7, MDA-MB-231, MCF-10A) was performed after 24 h incubation with varied concentrations of the tested compounds in the medium (0.5–5 µM) in 6-well plates (baseline seeding density: 5 × 10^5 cells/well). After 24 h the medium was removed, the cells were washed with PBS (Corning, Kennebunk, ME, USA), and a fresh medium was added. After that, the cells were treated with 0.5 µCi of tritium-labeled thymidine (specific activity 7 Ci/mmol) by incubating them with this compound for 4 h under the same conditions as the cell culture. In the first step, the medium was removed, and the cell monolayer was washed twice with 1 mL of 0.05 M Tris-HCl buffer pH 7.4 containing 0.11 M NaCl. To denature proteins, the cells were washed twice with 1 mL of 5% trichloroacetic acid (TCA) solution. Finally, cell lysis was performed by adding 1 mL of 0.1 M sodium hydroxide (NaOH) solution containing 1% sodium dodecyl sulfate (SDS) to each well. After five minutes, the obtained cell lysates were transferred to scintillation vials with 2 mL of scintillation fluid added to them beforehand. Radioactivity was measured using the Scintillation Counter 1900 TR, TRI-CARB (Packard, Perkin Elmer, Inc., San Jose, CA, USA). The intensity of DNA biosynthesis in the analyzed cells was expressed in terms of dpm/well. The result of the radioactivity measurement in the control cells (without the addition of tested compounds) was taken as 100%, while the values of cells incubated with the tested compounds were presented as a percentage of the control value.

[6] = system: MDA-MB-231 triple-negative breast cancer cells; assay: DNA biosynthesis assay ([3H]-thymidine incorporation), MDA-MB-231; type: cell-based, human; details: Homo sapiens, MDA-MB-231, 24 h, read-out: IC50, DNA biosynthesis
Method: as §2

[7] = system: MCF-10A normal human breast epithelial cells; assay: DNA biosynthesis assay ([3H]-thymidine incorporation), MCF-10A; type: cell-based; details: Homo sapiens, 24 h, read-out: IC50, DNA biosynthesis
Method: as §2

[8] = system: MCF-7, MDA-MB-231 and MCF-10A cells; assay: Viability (MTT) and DNA biosynthesis, summary statements over the tested cell lines; type: cell-based, human; details: DNA biosynthesis, vs EDAG-1 and EDAG-8
Method: The MTT assay was used to determine the cytotoxic effects of the compounds in the study on MCF-7 and MDA-MB-231 breast cancer cells as well as MCF-10A normal human breast epithelial cells based on Carmichael’s method. All cultured cell lines were treated with varied concentrations of the tested compounds in the medium (0.5–5 µM) and incubated for 24 h in an incubator providing optimal conditions for cell culture growth (37 °C temperature, 5% CO2, and 90–95% humidity) in 6-well plates (baseline seeding density: 5 × 10^5 cells/well). After this time, the medium was removed, and the cell monolayer was washed with warm phosphate-buffered saline (PBS) without calcium and magnesium. In the next step, PBS and MTT solution in PBS (5 mg/mL) were added to each well to obtain a final MTT concentration of 0.5 mg/mL, and then the cells were incubated for 4 h (37 °C temperature, 5% CO2, 90–95% humidity). After the incubation period, the contents of each well were removed, 1 mL of DMSO was added to dissolve the formazan, and then the plate with the added DMSO was mixed for 5–10 min on a microplate shaker (Boeco, Hamburg, Germany). Then, 10 µL of Sorensen’s glycine buffer (a solution of 0.1 M glycine and 0.1 M sodium chloride adjusted to pH 10.5 with 0.1 M sodium hydroxide) was added. The absorbance of the obtained solution was immediately measured at a wavelength of λ = 570 nm using a Thermo Scientific Evolution 201 UV–VIS spectrophotometer (Thermo Fisher Scientific, Waltham, MA, USA). The absorbance result obtained in the control cells (without the addition of the tested compounds) was taken as 100%, while the viability of cells incubated with the tested compounds was presented as a percentage of the control value.
The study of the antiproliferative properties (intensity of [^3H]-thymidine incorporation into cell DNA) of the tested derivatives against tested cell lines (MCF-7, MDA-MB-231, MCF-10A) was performed after 24 h incubation with varied concentrations of the tested compounds in the medium (0.5–5 µM) in 6-well plates (baseline seeding density: 5 × 10^5 cells/well). After 24 h the medium was removed, the cells were washed with PBS (Corning, Kennebunk, ME, USA), and a fresh medium was added. […] Radioactivity was measured using the Scintillation Counter 1900 TR, TRI-CARB (Packard, Perkin Elmer, Inc., San Jose, CA, USA). The intensity of DNA biosynthesis in the analyzed cells was expressed in terms of dpm/well. The result of the radioactivity measurement in the control cells (without the addition of tested compounds) was taken as 100%, while the values of cells incubated with the tested compounds were presented as a percentage of the control value.

For CC(=O)C[Se]C(=O)c1ccc(Cl)cc1 [EDA-71], the “cells in which the apoptotic process was triggered” value [1] is given as “over 50%”.
For N#CC[Se]C(=O)c1ccc(C(=O)[Se]CC#N)cc1 [EDAG-7, Se,Se-bis(cyanomethyl) benzene-1,4-bis(carboselenoate)], the IC50 [2] was 3150 ± 210 nM, the IC50 ([3]; Homo sapiens, MDA-MB-231, 24 h incubation, read-out: IC50, cell viability (MTT)) was > 5000 nM and the IC50 [4] was 4640 ± 240 nM. The IC50 [5] was 1810 ± 110 nM, the IC50 [6] was 2040 ± 160 nM and the IC50 [7] was 2330 ± 20 nM. For the same compound, the “fold weaker antiproliferative activity than the most active derivatives” value [8] was 2–3 fold.
With N#CC[Se]C(=O)c1cc(C(=O)[Se]CC#N)cc(C(=O)[Se]CC#N)c1 [EDAG-10, Se,Se,Se-tris-(cyanomethyl) benzene-1,3,5-tris-(carboxyselenoate)] the IC50 [2] was 2600 ± 30 nM, the “fold weaker cytotoxic activity than the most active compounds” value ([3]; MDA-MB-231, MTT, vs EDAG-8/EDAG-1) was ~4 fold and the IC50 [4] was 4180 ± 290 nM. The IC50 [5] was 1950 ± 110 nM, the IC50 [6] was 1560 ± 80 nM and the IC50 [7] was 1600 ± 50 nM. For the same compound, the “fold weaker antiproliferative activity than the most active derivatives” value [8] was 2–3 fold.
